For 49 compounds, IC50 results are on record in patent EP1345943B1, “INHIBITORS OF PAPILLOMA VIRUS” (BOEHRINGER INGELHEIM (CANADA) LTD., priority 2000, dated 2002).

Sequence of E1-E2-DNA complex (P04015 whole entry, one chain of several): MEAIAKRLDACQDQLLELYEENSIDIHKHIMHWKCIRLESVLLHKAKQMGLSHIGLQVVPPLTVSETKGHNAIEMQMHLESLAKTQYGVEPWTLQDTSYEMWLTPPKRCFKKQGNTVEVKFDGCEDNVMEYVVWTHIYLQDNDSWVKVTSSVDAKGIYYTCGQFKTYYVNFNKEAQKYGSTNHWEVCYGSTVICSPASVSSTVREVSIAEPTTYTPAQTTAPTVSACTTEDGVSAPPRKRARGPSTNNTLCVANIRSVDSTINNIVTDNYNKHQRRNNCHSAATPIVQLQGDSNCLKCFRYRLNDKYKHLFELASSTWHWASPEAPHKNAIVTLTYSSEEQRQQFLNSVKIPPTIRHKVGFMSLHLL

This experiment has as its target E1-E2-DNA complex (Human papillomavirus 11, UniProt P04015). The experiment can be described thus: E2-dependent E1 DNA binding assay (E1-E2 DNA assay). The following applies: E1-E2 DNA assay of Example 11, HPV-11. The procedure:
This particular assay determines the ability of a test compound to inhibit the activity (IC50) of HPV-11 DNA replication. More specifically, in the assay described herein, the inhibitory activity of the test compound is evaluated based on its ability to interfere with the E1-E2-DNA origin of replication interaction, thereby inhibiting initiation of viral DNA replication.
This assay was modeled on a similar assay for SV40 T Antigen described by McKay (J. Mol. Biol., 1981,145:471). A 400bp radiolabeled DNA probe, containing the -HPV-11 origin of replication (Chiang et al.., 1992, Proc. Natl.-Acad. Sci. USA 89:5799) was produced by pcr, using plasmid pBluescript™ SK encoding the origin (nucleotides 7886-61 of the HPV-11 genome in unique BAMH1 site) as template and primers flanking the origin. Radiolabel was incorporated as [33p]dCTP. Binding assay buffer consisted of: 20 mM Tris pH 7.6, 100 mM NaCI, 1 mM DTT, 1 mM EDTA.
Other reagents used were protein A-SPA beads (type II, Amersham) and K72 rabbit polyclonal antiserum, raised against a peptide corresponding to the C-terminal 14 amino acids of HPV-11 E1. Following the protocol from Amersham, one bottle of beads was mixed with 25 mL of binding assay buffer. For the assay, a saturating amount of K72 antiserum was added to the beads and the mixture was incubated for 1 h, washed with one volume of binding assay buffer, and then resuspended in the same volume of fresh binding assay buffer. Binding reactions contained 8 ng of E2, approximately 100-200 ng of purified E1, and 0.4 ng of radiolabeled probe in a total of 80 µL of binding assay buffer. After 1 h at room temperature, 25 µL of K72 antibody-SPA bead suspension was added to with the binding reaction and mixed. After an additional hour of incubation at room temperature, the reactions were centrifuged briefly to pellet the beads and the extent of complex formation was determined by scintillation counting on a Packard TopCount™. Typically, the signal for reactions containing E1 and E2 was 20-30 fold higher than the background observed when either E1, E2, or both was omitted.
For `Cc1ccc(NC(=O)C2C(c3ccc(Br)c(Br)c3)OC3(C(=O)c4ccccc4C3=O)C2C(=O)O)cc1` (racemic) [Compound 1072], the IC50 (as a rule, the concentration that inhibits the measured activity by half) was below 0.5 µM.
`O=C(Nc1ccc2c(c1)OCO2)C1C(c2cccc(Cl)c2)OC2(C(=O)c3ccccc3C2=O)C1C(=O)O` (stereo not shown) [Compound 1015]: the IC50 is 0.5 to 5 µM.
Compound `O=C(Nc1cccc(Cl)c1)C1C(c2ccc(Br)c(Br)c2)OC2(C(=O)c3ccccc3C2=O)C1C(=O)O` (stereo not shown) [Compound 1119] gave an IC50 below 0.5 µM.
`Cc1ccc(NC(=O)C2C(c3ccc(Cl)cc3)OC3(C(=O)c4ccccc4C3=O)C2C(=O)O)cc1` (stereo not shown) [Compound 1007] registered a half-inhibitory concentration (IC50) of 5 to 50 µM.
`Cc1cc2c(cc1F)C(=O)C1(OC(c3ccc(Br)c(Br)c3)C(C(=O)Nc3ccc(N4CCOCC4)cc3)C1C(=O)O)C2=O` (single isomer, unassigned) [Compound A1016]: the IC50 is 0.5 to 5 µM.
`CS(=O)(=O)c1ccc(NC(=O)C2C(c3ccc(Br)c(Br)c3)OC3(C(=O)c4ccccc4C3=O)C2C(=O)O)cc1` (stereo not shown) [Compound 1086] yielded a half-inhibitory concentration (IC50) below 0.5 µM.
The figure for `CC(=O)Nc1ccc(NC(=O)C2C(c3ccc(Br)c(Br)c3)OC3(C(=O)c4ccccc4C3=O)C2C(=O)O)cc1` (stereo not shown) [Compound 1092] is below 0.5 µM; for `O=C(Nc1ccc(F)c(F)c1)C1C(c2ccc(Cl)c(Cl)c2)OC2(C(=O)c3ccccc3C2=O)C1C(=O)O` (stereo not shown) [Compound 1111] it is 0.5 to 5 µM; for `CC(=O)c1ccc(NC(=O)C2C(C=Cc3ccccc3C)OC3(C(=O)c4ccccc4C3=O)C2C(=O)O)cc1` (stereo not shown) [Compound 4011] it is 5 to 50 µM.
For `CSc1ccc(NC(=O)C2C(c3ccc(Br)c(Br)c3)OC3(C(=O)c4ccccc4C3=O)C2C(=O)O)cc1` (stereo not shown) [Compound 1081], the IC50 is below 0.5 µM.
For `O=C(Nc1cc(F)cc(F)c1)C1C(c2ccc(Cl)c(Cl)c2)OC2(C(=O)c3ccccc3C2=O)C1C(=O)O` (stereo not shown) [Compound 1096], the IC50 was 0.5 to 5 µM.
The figure for `Cc1ccc2c(c1)C(=O)C13OC(c4ccc(Br)c(Br)c4)C(C(=O)NCCc4ccccc4Cl)C1C(=O)OC23O` (single isomer, unassigned) [Compound B1004] is 5 to 50 µM.
In turn, `O=C(Nc1ccc(Cl)cc1)C1C(c2ccc(Br)c(Br)c2)OC2(C(=O)c3ccccc3C2=O)C1C(=O)O` (stereo not shown) [Compound 1110] yielded an IC50 below 0.5 µM.
`CC(=O)c1ccc(NC(=O)C2C(c3ccc(C)c(C)c3)OC3(C(=O)c4ccccc4C3=O)C2C(=O)O)cc1` (stereo not shown) [Compound 1056] showed an IC50 of 0.5 to 5 µM.
The same measure for `O=C(Nc1ccc2c(c1)OCO2)C1C(c2ccc3c(c2)OCO3)OC2(C(=O)c3ccccc3C2=O)C1C(=O)O` (stereo not shown) [Compound 4003]: 5 to 50 µM.
For `CC(C)NC(=O)C1C(c2ccc(Cl)c(Cl)c2)OC2(C(=O)c3ccccc3C2=O)C1C(=O)O` (stereo not shown) [Compound 1036], the IC50 lay within 0.5 to 5 µM.
On to `O=C(NC1CC1c1ccccc1)C1C(c2ccc(Br)c(Br)c2)OC2(C(=O)c3ccccc3C2=O)C1C(=O)O` (single isomer, unassigned) [Compound 1088], for which the IC50 fell in the range of 0.5 to 5 µM.
The figure for `O=C(Nc1ccc2c(c1)OCO2)C1C(c2cc(Cl)cc(Cl)c2)OC23C(=O)c4ccccc4C2(O)OC(=O)C13` (racemic) [Compound 3001] is 0.5 to 5 µM; for `CC(=O)c1ccc(NC(=O)C2C(c3ccc(Br)c(Br)c3)OC3(C(=O)c4ccccc4C3=O)C2C(=O)O)cc1` (racemic) [Compound 1027] it is below 0.5 µM; for `O=C(NN1CCOCC1)C1C(c2ccc(F)c(Cl)c2)OC2(C(=O)c3ccccc3C2=O)C1C(=O)O` (stereo not shown) [Compound 1093] it is 5 to 50 µM.
With `Cc1cc(C)cc(NC(=O)C2C(c3ccc(Cl)c(Cl)c3)OC3(C(=O)c4ccccc4C3=O)C2C(=O)O)c1` (stereo not shown) [Compound 1126], the IC50 was in the range of 0.5 to 5 µM.
`O=C(Nc1ccc(N2CCOCC2)cc1)C1C(c2ccc(Br)c(Br)c2)OC2(C(=O)c3ccccc3C2=O)C1C(=O)O` (racemic) [Compound 1078] had an IC50 below 0.5 µM.
The same measure for `CS(=O)(=O)c1ccc(NC(=O)C2C(c3ccc(Cl)c(Cl)c3)OC3(C(=O)c4ccccc4C3=O)C2C(=O)O)cc1` (stereo not shown) [Compound 1053]: 0.5 to 5 µM.
The compound `Cc1ccc2c(c1)C(=O)C1(OC(c3ccc(Br)c(Br)c3)C(C(=O)Nc3ccc(-c4csnn4)cc3)C1C(=O)O)C2=O` (single isomer, unassigned) [Compound A1010] gave an IC50 of 0.5 to 5 µM.
With `Cc1ccc2c(c1)C(=O)C1(OC(c3ccc(Cl)c(Cl)c3)C(C(=O)Nc3ccc4c(c3)OCO4)C1C(=O)O)C2=O` (single isomer, unassigned) [Compound A1005], the IC50 is below 0.5 µM.
Compound `O=C1C2C(c3ccc(Cl)c(Cl)c3)OC3(C(=O)c4ccccc4C3=O)C2C(=O)N1c1ccc2c(c1)OCO2` (racemic) [Compound 2013] registered an IC50 of 0.5 to 5 µM.
With `CC(C)c1ccc(C2OC3(C(=O)c4ccccc4C3=O)C(C(=O)O)C2C(=O)Nc2ccc3c(c2)OCO3)cc1` (stereo not shown) [Compound 1008], the IC50 lay within 5 to 50 µM.
For `O=C(Nc1ccc(Cl)cc1)C1C(c2ccc(Cl)c(Cl)c2)OC2(C(=O)c3ccccc3C2=O)C1C(=O)O` (stereo not shown) [Compound 1101], the IC50 fell in the range of 0.5 to 5 µM.
`O=C(Nc1ccc2c(c1)OCO2)C1C(c2ccc(I)cc2)OC2(C(=O)c3ccccc3C2=O)C1C(=O)O` (stereo not shown) [Compound 1039]: the IC50 lay within 0.5 to 5 µM.
With `O=C(Nc1ccc(N2CCOCC2)cc1)C1C(c2ccc(F)c(F)c2)OC2(C(=O)c3ccccc3C2=O)C1C(=O)O` (stereo not shown) [Compound 1059], the IC50 is 0.5 to 5 µM.
On to `O=C(NC1CCCCC1)C1C(c2ccc(Cl)c(Cl)c2)OC2(C(=O)c3ccccc3C2=O)C1C(=O)O` (stereo not shown) [Compound 1082], for which the IC50 was 0.5 to 5 µM.
Compound `O=C(Nc1cc(F)cc(F)c1)C1C(c2ccc(F)c(Cl)c2)OC2(C(=O)c3ccccc3C2=O)C1C(=O)O` (stereo not shown) [Compound 1120] gave an IC50 of 0.5 to 5 µM.
The compound `Cc1cc2c(cc1F)C(=O)C13OC(c4ccc(Br)c(Br)c4)C(C(=O)Nc4ccc(N5CCOCC5)cc4)C1C(=O)OC23O` (single isomer, unassigned) [Compound B1008] registered an IC50 below 0.5 µM.
For `CSc1ccc(NC(=O)C2C(c3ccc(Cl)c(Cl)c3)OC3(C(=O)c4ccccc4C3=O)C2C(=O)O)cc1` (stereo not shown) [Compound 1033], the IC50 lay within 0.5 to 5 µM.
In turn, `O=C(Nc1cnc2ccccc2c1)C1C(c2ccc(F)c(F)c2)OC2(C(=O)c3ccccc3C2=O)C1C(=O)O` (stereo not shown) [Compound 1061] returned an IC50 of 5 to 50 µM.
The compound `O=C(Nc1ccccc1F)C1C(c2ccc(Cl)c(Cl)c2)OC2(C(=O)c3ccccc3C2=O)C1C(=O)O` (stereo not shown) [Compound 1125] yielded an IC50 below 0.5 µM.
The compound `CC(=O)c1ccc(N2C(=O)C3C(c4ccc(Cl)c(Cl)c4)OC4(C(=O)c5ccccc5C4=O)C3C2=O)cc1` (racemic) [Compound 2016] registered an IC50 of 0.5 to 5 µM.
The compound `Cc1ccc2c(c1)C(=O)C1(OC(c3ccc(Cl)c(Cl)c3)C(C(=O)Nc3ccc4c(c3)OCO4)C1C(=O)O)C2=O` (single isomer, unassigned) [Compound A1003] returned an IC50 of 5 to 50 µM.
For `O=C(Nc1ccc(-c2csnn2)cc1)C1C(c2ccc(Cl)c(Cl)c2)OC2(C(=O)c3ccccc3C2=O)C1C(=O)O` (stereo not shown) [Compound 1052], the IC50 was below 0.5 µM.
The same measure for `CC(=O)c1ccc(NC(=O)C2C(c3ccc(Cl)cc3)OC3(C(=O)c4ccccc4C3=O)C2C(=O)O)cc1` (stereo not shown) [Compound 1005]: 5 to 50 µM; for `O=C(NCc1ccc2c(c1)OCO2)C1C(c2ccc(Cl)c(Cl)c2)OC2(C(=O)c3ccccc3C2=O)C1C(=O)O` (stereo not shown) [Compound 6001]: 5 to 50 µM.
Turning to `COc1ccc2c(c1)C(=O)C1(OC(c3ccc(Cl)c(Cl)c3)C(C(=O)Nc3ccc(C(C)=O)cc3)C1C(=O)O)C2=O` (stereo not shown) [Compound 1129], the IC50 is 5 to 50 µM.
`O=C1C2C(c3ccc(Cl)cc3)OC3(C(=O)c4ccccc4C3=O)C2C(=O)N1c1ccc(C(F)(F)F)cc1` (stereo not shown) [Compound 2015] yielded an IC50 of 5 to 50 µM.
On to `N#Cc1ccc(NC(=O)C2C(c3ccc(Cl)c(Cl)c3)OC3(C(=O)c4ccccc4C3=O)C2C(=O)O)cc1` (stereo not shown) [Compound 1070], for which the IC50 was in the range of 0.5 to 5 µM.
`N#Cc1cccc(C2OC3(C(=O)c4ccccc4C3=O)C(C(=O)O)C2C(=O)Nc2ccc3c(c2)OCO3)c1` (stereo not shown) [Compound 1080]: the concentration for half-maximal inhibition (IC50) lay within 5 to 50 µM.
Take `CC(=O)c1ccc(NC(=O)C2C(C=Cc3ccccc3Br)OC3(C(=O)c4ccccc4C3=O)C2C(=O)O)cc1` (stereo not shown) [Compound 4007]: the IC50 lay in the range of 0.5 to 5 µM.
`O=C1C2C(c3ccc(Cl)c(Cl)c3)OC3(C(=O)c4ccccc4C3O)C2C(=O)N1c1ccc2c(c1)OCO2` (racemic) [Compound 9001] yielded an IC50 of 5 to 50 µM.
With `CC(NC(=O)C1C(c2ccc(Cl)c(Cl)c2)OC23C(=O)c4ccccc4C2(O)OC(=O)C13)c1ccccc1` (racemic) [Compound 3007], the IC50 was in the range of 5 to 50 µM.
On to `O=C(Nc1ccc(N2CCOCC2)cc1)C1C(c2ccc(Br)c(Br)c2)OC2(C(=O)c3ccc(F)cc3C2=O)C1C(=O)O` (stereo not shown) [Compound 1143], for which the IC50 is below 0.5 µM.
